The conditions of data set [1]: RP-HPLC used as measure of hydrophobicity; 4.6 mm × 250 mm Venusil MP C18-5 column, 220 nm, linear acetonitrile gradient 15% to 45% in 30 min, 0.1% trifluoroacetic acid, 1 mL/min. The source says:
In this experiment, cyclic, linear and D-proline antimicrobial peptides were designed based on the IR-rich template sequence (IR)nP(IR)nP (n = 1, 2 and 3). […] The […] molecular weights of the peptides were identified using mass spectrometry. […] The hydrophobicity of the peptides in solution is dependably mirrored by the HPLC retention times.

Another data set concerns E. coli 25922. As to the kind of experiment: microbe, parasite or virus in culture. Type of data set: cell-based, Escherichia coli. As to the method:
(§1) The test strains, including Gram-negative E. coli ATCC25922, E. coli ATCC 1005, S. typhimurium C7731, P. aeruginosa ATCC 27853, S. Typhimurium 14028, Gram-positive S. aureus ATCC29213, S. aureus ATCC 25923, S. epidermidis ATCC 12228 and S. aureus 43300, were obtained from the School of Veterinary Medicine, Northeast Agricultural University (Harbin, China).
(§2) Briefly, the bacteria were incubated overnight at 37 °C with constant shaking at 220 rpm, then were transferred to new MH broth (MHB) medium until they reached the logarithmic phase of growth. The bacteria were then diluted to 10^5 (CFU)/mL in MHB. The peptides were dissolved and diluted in 0.01% acetic acid and 0.2% bovine serum albumin (BSA) at various concentrations (0.5–128 μM) in each well of sterile 96-well plates and incubated for 20 h at 37 °C. […] The test was repeated three times.

For the next data set, the system named is E. coli UB 1005. The data set can be described thus: microbe, parasite or virus in culture. Format: cell-based, Escherichia coli. As to the method: as §1, §2
Another data set concerns S. aureus 25923. As to the kind of experiment: microbe, parasite or virus in culture. Format: cell-based, Staphylococcus aureus. On the procedure:
as §1, §2

For another data set, the system named is S. aureus 29213. As to the kind of experiment: microbe, parasite or virus in culture. Format: cell-based, Staphylococcus aureus. On the procedure: as §1, §2
The next data set deals with MRSA43300. As to the kind of experiment: microbe, parasite or virus in culture. Format: cell-based, Methicillin-resistant Staphylococcus aureus. On the procedure:
as §1, §2

A further data set deals with P. aeruginosa 27853. The data set can be described thus: microbe, parasite or virus in culture. The following applies: read-out: MIC. Format: cell-based. On the procedure: as §1, §2
Another data set relates to S. epidermidis 12228. As to the kind of experiment: microbe, parasite or virus in culture. Type of data set: cell-based. As to the method: as §1, §2
For a further data set, the system named is S. typhimurium 14028. The data set can be described thus: microbe, parasite or virus in culture. Type of data set: cell-based. On the procedure: as §1, §2
The test system of another data set is S. typhimurium 7731. The data set can be described thus: microbe, parasite or virus in culture. Format: cell-based. As to the method:
as §1, §2

For data set [2], the system named is gram-negative strains tested. As to the kind of experiment: Geometric mean of MICs, gram-negative strains. Type of data set: cell-based. The following applies: 5 gram-negative strains; >128 apparently counted as 256; read-out: nGM (–), geometric mean of the MICs against gram-negative strains. As to the method:
as §2

For data set [3], the system named is gram-positive strains tested. The data set can be described thus: organism not typed. Type of data set: cell-based. The conditions noted are these: for pGM (+), geometric mean of the MICs against gram-positive strains: 20 h. On the procedure: as §2
Data set [4] has as its system all the 9 bacteria tested. The data set can be described thus: Geometric mean of MICs, all 9 bacteria. Format: cell-based. The following applies: for tGM, geometric mean of the MICs against all the 9 bacteria: all 9 bacteria tested. As to the method:
as §2

Data set [5] deals with human red blood cells (hRBCs). The data set can be described thus: Hemolysis assay. Type of data set: cell-based. On the procedure:
Figure 2 (A) Hemolytic activity of the engineered peptides against human red blood cells (hRBCs). The hRBCs were incubated with equal amounts of the respective peptides dissolved in PBS for 1 h at 37 °C. (B) Cytotoxicity of the engineered peptides against RAW264.7. […] Data shown are three independent experiments.
The hemolytic activity of the peptides is determined by measuring the amount of hemoglobin released during the lysis of human erythrocytes at different concentrations of AMPs. Briefly, fresh, healthy human red blood cells (hRBCs) were collected and then washed three times with phosphate-buffered saline (PBS) buffer (pH 7.2) and centrifuged at 1000× g for 5 min. Each 50 µL sample of hRBCs was incubated with 50 µL of the respective peptide dissolved in PBS in a well of a 96-well plate for 1 h at 37 °C. After incubation, the samples were centrifuged at 1000× g for 5 min and the supernatants (50 μL) were transferred to a new 96-well microplate. The release of hemoglobin was measured by monitoring the OD at 570 nm (Tecan, Salzburg, Austria). Negative (hRBCs without AMP treatment) and positive (hRBCs treated with 0.1% TritonX-100) controls were used. The concentration of peptide that caused 5% hemolysis was considered the minimal hemolysis concentration (MHC). The test was repeated three times. The percent hemolysis was calculated using the following formula:(2) Percent hemolysis=A−A0/At−A0× 100% A0 and At represent 0% and 100% hemolysis as measured in 10 mM PBS and 0.2% Triton X-100, respectively.

The test system of data set [6] is Gram-positive and Gram-negative bacteria. The data set can be described thus: Antimicrobial assay (MIC), statement over all strains. The conditions noted are these: all strains tested. Type of data set: cell-based. On the procedure: as §2
Data set [7] relates to bacteria versus human red blood cell. The data set can be described thus: Selectivity index (MHC5/GM). The conditions noted are these: 256 μM used for MHC5 when no hemolysis at 128 μM. On the procedure: To investigate the cell selectivity of novel antimicrobials, the total selectivity index (TSI) was calculated as the ratio of the minimal hemolysis concentration (MHC) to the geometric mean (GM) of the MIC values (Table 2).

Values after ≈ are worked out from the molar mass of the structure shown. Like-named read-outs stand apart in the source and are kept apart here. Where a SMILES comes first, the peptide text is derived from it. Where no end group is shown, it is not given here.

With `CC[C@H](C)[C@@H]1NC(=O)[C@@H]2CCCN2C(=O)[C@H](CCCNC(=N)N)NC(=O)[C@H]([C@@H](C)CC)NC(=O)[C@@H]2CCCN2C(=O)[C@H](CCCNC(=N)N)NC1=O` [OIR1] (cyclo(IRPIRP)), the “RT (retention time)” value in data set [1] came out at 10.32 min. Further, the MIC is given as over 128 µM in the data set with E. coli 25922 (25922, 20 h); over 128 µM with E. coli UB 1005 (UB 1005, 20 h); over 128 µM against S. aureus 25923 (25923, 20 h); over 128 µM with S. aureus 29213 (29213, 20 h); over 128 µM against MRSA43300 (20 h); over 128 µM in the data set on P. aeruginosa 27853 (27853, 20 h). In addition, the MIC against S. epidermidis 12228 (12228, 20 h) is listed as over 128 µM; in the data set on S. typhimurium 14028 (14028, 20 h), over 128 µM; in the data set with S. typhimurium 7731 (7731, 20 h), over 128 µM; in data set [2], 256 µM (≈ 188 µg/mL). In addition, in [3], the “pGM (+), geometric mean of the MICs against gram-positive strains” value (from here on “pGM (+), geometric mean of the MICs”) was found to be 256 µM. Besides, the “tGM, geometric mean of the MICs against all the 9 bacteria” value (“tGM, geometric mean of the MICs” below) in data set [4] was determined as 256 µM. The “MHC5, minimum hemolytic concentration that induced ≥5% hemolysis” value in data set [5] (red cells of human, 1 h) is on record as over 128 µM. In data set [6], the “MIC in the presence of Gram-positive and Gram-negative bacteria” value is given as “greater than 128 μM”.

In the case of `CC[C@H](C)[C@@H]1NC(=O)[C@H](CCCNC(=N)N)NC(=O)[C@H]([C@@H](C)CC)NC(=O)[C@@H]2CCCN2C(=O)[C@H](CCCNC(=N)N)NC(=O)[C@H]([C@@H](C)CC)NC(=O)[C@H](CCCNC(=N)N)NC(=O)[C@H]([C@@H](C)CC)NC(=O)[C@@H]2CCCN2C(=O)[C@H](CCCNC(=N)N)NC1=O` [OIR2] (cyclo(IRIRPIRIRP)), the “RT (retention time)” value in data set [1] is reported as 10.66 min. The MIC in the data set with E. coli 25922 (25922, 20 h) is given as 64 µM (≈ 81.4 µg/mL); against E. coli UB 1005 (UB 1005, 20 h), 64 µM (≈ 81.4 µg/mL); against S. aureus 25923 (25923, 20 h) it was over 128 µM; against S. aureus 29213 (29213, 20 h) it was over 128 µM; with MRSA43300 (20 h), over 128 µM; with P. aeruginosa 27853 (27853, 20 h), over 128 µM. The MIC is over 128 µM with S. epidermidis 12228 (12228, 20 h); over 128 µM against S. typhimurium 14028 (14028, 20 h); over 128 µM in the data set on S. typhimurium 7731 (7731, 20 h); 147.0 µM (≈ 187 µg/mL) in [2]. For the same molecule, the “pGM (+), geometric mean of the MICs” value in data set [3] stood at 256 µM. The “tGM, geometric mean of the MICs” value in [4] came to 188.1 µM. Also, the “MHC5, minimum hemolytic concentration that induced ≥5% hemolysis” value in data set [5] (red cells of human, 1 h) was over 128 µM.

With `CC1(C)S[C@@H]2[C@H](NC(=O)Cc3ccccc3)C(=O)N2[C@H]1C(=O)O` [PS, Penicillin Sodium, reference compound], the MIC was 128 µM in the data set on E. coli 25922 (Escherichia coli, E. coli 25922, MHB, 10^5 CFU/mL, 0.5–128 μM peptide, 20 h 37 °C, OD 492 nm, repeated three times); 64 µM against E. coli UB 1005 (Escherichia coli, UB1005, E. coli UB 1005, MHB, 10^5 CFU/mL, 20 h 37 °C, repeated three times); 32 µM against S. aureus 25923 (Staphylococcus aureus, S. aureus 25923, MHB, 10^5 CFU/mL, 20 h 37 °C, repeated three times); 64 µM with S. aureus 29213 (Staphylococcus aureus, S. aureus 29213, MHB, 10^5 CFU/mL, 20 h 37 °C, repeated three times); 32 µM against MRSA43300 (Staphylococcus aureus, MRSA43300, MHB, 10^5 CFU/mL, 20 h 37 °C, repeated three times); 128 µM in the data set on P. aeruginosa 27853 (Pseudomonas aeruginosa, P. aeruginosa 27853, MHB, 10^5 CFU/mL, 20 h 37 °C, repeated three times). For the same molecule, the MIC against S. epidermidis 12228 (Staphylococcus epidermidis, S. epidermidis 12228, MHB, 10^5 CFU/mL, 20 h 37 °C, repeated three times) stood at 0.5 µM; against S. typhimurium 14028 (Salmonella enterica, S. typhimurium 14028, MHB, 10^5 CFU/mL, 20 h 37 °C, repeated three times), 16 µM; in the data set with S. typhimurium 7731 (Salmonella enterica, S. typhimurium 7731, MHB, 10^5 CFU/mL, 20 h 37 °C, repeated three times) it was 0.5 µM; in [2], 24.3 µM; in data set [3] (4 gram-positive strains, >128 apparently counted as 256, read-out: pGM (+), geometric mean of the MICs against gram-positive strains), 13.5 µM; in data set [4] (read-out: tGM, geometric mean of the MICs against all the 9 bacteria), 18.7 µM. Further, in data set [4] (Table 2), the “GM MIC (range of Gram-negative and Gram-positive geometric means)” value was in the range of 13.5 to 24.3 µM. Moreover, the “MHC5, minimum hemolytic concentration that induced ≥5% hemolysis” value in data set [5] (human red blood cells, PBS, 1 h at 37 °C, OD 570 nm, repeated three times) is recorded as over 128 µM. Also, the “nSI (–), selectivity index MHC5/GM (−)” value in data set [7] is 10.5. For the same molecule, the “pSI (+), selectivity index MHC5/GM(+)” value in [7] stood at 19.0. In addition, in data set [7], the “tSI, total selectivity index MHC5/TGM” value is listed as 13.7.

Take IRPIRP [IR1]: the MIC against E. coli 25922 (25922, 20 h) is over 128 µM; in the data set on E. coli UB 1005 (UB 1005, 20 h), over 128 µM; against S. aureus 25923 (25923, 20 h) it was over 128 µM; with S. aureus 29213 (29213, 20 h), over 128 µM; with MRSA43300 (20 h), over 128 µM; with P. aeruginosa 27853 (27853, 20 h), over 128 µM. For the same molecule, the MIC against S. epidermidis 12228 (12228, 20 h) is over 128 µM; with S. typhimurium 14028 (14028, 20 h), over 128 µM; against S. typhimurium 7731 (7731, 20 h) it was over 128 µM; in data set [2], 256 µM. Further, in [3], the “pGM (+), geometric mean of the MICs” value was 256 µM. Further, in [4], the “tGM, geometric mean of the MICs” value was found to be 256 µM. Besides, the “MHC5, minimum hemolytic concentration that induced ≥5% hemolysis” value in data set [5] (red cells of human, 1 h) is over 128 µM. Further, in data set [6], the “MIC in the presence of Gram-positive and Gram-negative bacteria” value is on record as “greater than 128 μM”.

These data come from publication PMC6928678, “Simplified Head-to-Tail Cyclic Polypeptides as Biomaterial-Associated Antimicrobials with Endotoxin Neutralizing and Anti-Inflammatory Capabilities” (International Journal of Molecular Sciences, 2019).
